Test results reported in ChEMBL document CHEMBL3137356, “MMV Box Cryptosporidium parvum screening set”.

Each compound was assayed on Cryptosporidium parvum (assay: MMV: Cryptosporidium parvum oocysts (Iowa Strain) were prepared for use by treatment with 10 mM HCl (37 degrees C, 10 min) followed by 2 mM sodium taurocholate in phosphate-buffered saline (PBS) with Ca2+ and Mg2+ (16 degrees C, 10 min) in order to stimulate excystation. The high-throughput screen was carried out by inoculating >90% confluent human ileocecal adenocarcinoma (HCT-8) cells (ATCC) with ~5.5 x 10^3 primed oocysts per well. Experimental compounds or DMSO (vehicle) were added three hours after infection, and cells were incubated for 48 hours.).
Type: functional
`CCOc1ccccc1CN1CCc2nc3cc(C(C)(C)C)nn3c(O)c2C1` gave an Inhibition of -3.69%.
For `Cc1cc(N2CCCC2)nc(Nc2ccc(NC(=O)CCc3ccccc3)cc2)n1`, the Inhibition was 13.46%.
`CN1CCN(c2ncnc3c2[nH]c2ccc(Cl)cc23)CC1` was tested, and the Inhibition was -51.61%.
Compound `O=C1c2ccccc2-c2nnc(-c3ccc(Br)cc3)cc21` has an Inhibition of -13.35%.
`CCOC(=O)C1=C(C)N=c2sc(=Cc3ccccc3O)c(=O)n2C1c1ccc(OC)c2ccccc12` (centres undefined) gave an Inhibition of -32.82%.
`CCOC(=O)C1=C(C)N=c2sc(=Cc3cc(Cl)ccc3O)c(=O)n2C1c1ccc(OC)cc1` (centres undefined) showed an Inhibition of -31.98%.
Work on `Cc1nc2ccccc2c(O)c1CC=C(Cl)Cl` yielded an Inhibition of -7.486%.
`FC(F)(F)c1cccc(Nc2nc3ccccc3nc2Nc2cccc(C(F)(F)F)c2)c1` showed an Inhibition of -14.38%.
Work on `COc1ccc2nc(C)cc(Nc3cccc(O)c3)c2c1.Cl` yielded an Inhibition of -14.76%.
For `CN(C)CCCNCc1ccc(-c2ccc(F)c(Cl)c2)o1.Cl`, the Inhibition was -9.329%.
With `O=c1nc(C=Cc2ccc(Br)cc2)oc2ccccc12` the Inhibition was 36.68%.
Work on `COc1ccc2nc(N)nc(C)c2c1` yielded an Inhibition of 15.73%.
`CC(=O)c1ccc(NC(=O)CSc2nc(-c3ccccc3Cl)ns2)cc1` showed an Inhibition of 23.33%.
Compound `COc1ccc(C(=O)NC(c2ccc(Cl)cc2Cl)c2cc(Cl)c3cccnc3c2O)cc1` (centres undefined) has an Inhibition of 66.57%.
Work on `CCC(=O)Nc1nnc(Cc2ccc(OC)c(OC)c2)s1` yielded an Inhibition of 5.406%.
For `Cl.c1ccc2c(NCCCCCCNc3c4c(nc5ccccc35)CCCC4)c3c(nc2c1)CCCC3`, the Inhibition was 13.18%.
`O=C(NCCCN1CCC(N2CCCCC2)CC1)C1=Cc2cc(Br)ccc2OC1` gave an Inhibition of -11.72%.
`Cc1ccnc(NC(c2cccc(OCc3ccccc3)c2)c2ccc3cccnc3c2O)c1` (centres undefined) showed an Inhibition of 80.24%.
Compound `Nc1ccc(-c2nc3cc(Cc4ccc5[nH]c(-c6ccc(N)cc6)nc5c4)ccc3[nH]2)cc1` has an Inhibition of -51.86%.
`CCCCOC(=O)c1ccc(Nc2cc(C)nc3ccc(OC)cc23)cc1` gave an Inhibition of 12.32%.
For `O=c1cc(NC2CCN(CCCc3ccccc3)CC2)c2cc(Cl)ccc2o1`, the Inhibition was -2.261%.
`Cc1ccc(OCCCCCCNCCO)c(C)c1` gave an Inhibition of -13.88%.
In the case of `COc1ccc(C2NCCc3c2[nH]c2ccccc32)cc1CN1CCN(c2ccc(F)cc2)CC1.Cl` (centres undefined), the Inhibition was -2.167%.
In the case of `COc1cccc(C(=O)Nc2ccc(-c3nc4ccccc4[nH]3)cc2)c1`, the Inhibition was -26.13%.
For `CCOc1ccc(-n2cc(-c3ccccc3)c3c(SCc4cc(C)ccc4C)ncnc32)cc1`, the Inhibition was -2.262%.
In the case of `Cc1ccc(C)c(Cn2c(N3CCC(C(=O)NCc4cccs4)CC3)nc3ccccc32)c1`, the Inhibition was -14.3%.
Compound `CC1CCN(Cc2c(O)ccc3cc(-c4nc5ccccc5s4)c(=O)oc23)CC1` has an Inhibition of -9.182%.
For `Cc1ccc2cc3c(N)c4c(C)ccc(C)c4nc3nc2c1`, the Inhibition was -22.09%.
In the case of `CC(C)CCNCC(O)Cn1c2ccccc2c2ccccc21.Cl` (centres undefined), the Inhibition was 46.75%.
For `COc1ccc(C2C(C(=O)Nc3cccc(OC)c3)c3ccccc3C(=O)N2C2CCCCC2)cc1` (centres undefined), the Inhibition was -43.91%.
For `CCOC(=O)c1cnc2ccc(Cl)cc2c1NCCCN(C)C`, the Inhibition was 28.81%.
`CCOc1ccccc1NC(=O)CN1CCN(C(=O)c2ccco2)CC1` was tested, and the Inhibition was -43.69%.
Compound `c1ccc2c(NCCc3c[nH]c4ccccc34)c3ccccc3nc2c1` has an Inhibition of 19.05%.
For `O=C(Nc1ccc(C23CC4CC(CC(c5ccccc5)(C4)C2)C3)cc1)c1cccs1`, the Inhibition was -2.299%.
In the case of `O=C1c2ccccc2C2=Nc3ccccc3SC(c3cccc(F)c3)C12` (centres undefined), the Inhibition was -5.793%.
With `Cc1ccccc1OCCSc1nc2ccc(NC(=O)c3ccccc3)cc2s1` the Inhibition was 17.58%.
Work on `CCOC(=O)c1cnc2c(C)cccc2c1Nc1ccc(C(C)=O)cc1` yielded an Inhibition of -10.99%.
Work on `O=C(Nc1ccc(-c2nc3cc4ccccc4cc3[nH]2)cc1)c1cccc(Br)c1` yielded an Inhibition of -10.01%.
Work on `Cc1ccc(C2CC(C(F)(F)F)n3nc(C(=O)N4CCN(C(c5ccccc5)c5ccccc5)CC4)cc3N2)cc1` (centres undefined) yielded an Inhibition of -21.96%.
`Cc1ccc2nc(C)cc(Nc3cccc(C(F)(F)F)c3)c2c1.Cl` gave an Inhibition of 53.25%.
In the case of `CC(C)(C)c1ccc(C(=O)Nc2c3c(nn2-c2cccc(Cl)c2)CSC3)cc1`, the Inhibition was 7.325%.
For `CCOc1cc2c(cc1OCC)C(c1cc(Cl)c(O)c(OCC)c1)NCC2` (centres undefined), the Inhibition was -10.58%.
`COc1ccc(N2CCN(C(CNC(=O)CC(C)(C)C)c3ccc4c(c3)OCO4)CC2)cc1` (centres undefined) gave an Inhibition of -20.28%.
For `COc1cccc(C(=O)NC(c2ccc(C)cc2)c2cc(Cl)c3cccnc3c2O)c1` (centres undefined), the Inhibition was 59.18%.
`CCCCCCn1c(=N)n(CC(O)COc2cccc(C)c2)c2ccccc21.Cl` (centres undefined) showed an Inhibition of 6.838%.
With `COc1ccc(-c2cc(=O)oc3c4c(ccc23)OCN(Cc2ccc(F)cc2)C4)cc1` the Inhibition was -0.4054%.
Compound `CCOC(=O)C1(Cc2ccccc2)CCN(Cc2cccc(OC)c2O)CC1` has an Inhibition of -29.57%.
`Oc1ccc(C(=C(Cl)Cl)c2ccc(O)cc2)cc1` gave an Inhibition of -24.26%.
`CCOc1ccc2c(c1)CN(Cc1ccc(Cl)cc1)CO2` was tested, and the Inhibition was -64.93%.
In the case of `CC(C)(C)c1ccc2c(c1)CN(Cc1ccc(Cl)cc1)CO2`, the Inhibition was -0.2226%.
With `CCCCC(O)(c1ccc(Cl)cc1)C(CN1CCOCC1)c1ccc(Cl)cc1.Cl` (centres undefined) the Inhibition was 17.88%.
`COc1ccc(OC)c(C2C3=C(CC(C)(C)CC3=O)N(c3ccc(Cl)c(Cl)c3)C3=C2C(=O)CC(C)(C)C3)c1` showed an Inhibition of 2.896%.
For `Cc1cc(=O)oc2c1ccc1oc(C(=O)c3ccccc3)c(C)c12`, the Inhibition was 64.86%.
With `COc1ccc(CN2CCN(Cc3ccccc3)CC2)c(O)c1` the Inhibition was -9.592%.
`COc1ccc2c(c1OC)C(=O)N1c3ccccc3N=C(c3ccc(C)cc3)CC21` (centres undefined) was tested, and the Inhibition was -57.7%.
`CCCCCCc1cc(O)c2c3c(c(=O)oc2c1)CCC(C)C3` (centres undefined) showed an Inhibition of -17.49%.
Work on `Cl.OC(CNCc1ccccc1)Cn1c2ccccc2c2ccccc21` (centres undefined) yielded an Inhibition of -37.25%.
Work on `CCCc1c(C)nc2ccc(Br)cc2c1O` yielded an Inhibition of -49.14%.
Work on `COc1ccc(CCNC(=O)c2cc(S(=O)(=O)N3CC(C)CC(C)C3)ccc2Sc2ccc(F)cc2)cc1OC` (centres undefined) yielded an Inhibition of 16.29%.
With `CCOc1ccc(Nc2c3ccccc3nc3ccccc23)cc1.Cl` the Inhibition was 26.95%.
Compound `CC1=C(CC(=O)c2cccc([N+](=O)[O-])c2)C(=O)c2ccccc2C1=O` has an Inhibition of -15.31%.
`OC1CCCCC1C1(NC(=S)Nc2ccccc2)CCCCC1` (centres undefined) was tested, and the Inhibition was 3.232%.
For `OC1=C2C(=Nc3ccccc3SC2c2ccc(Br)cc2)c2ccccc21` (centres undefined), the Inhibition was 2.929%.
Work on `COc1ccc(C)c2sc(N(Cc3cccnc3)C(=O)c3ccc(C#N)cc3)nc12` yielded an Inhibition of -2.161%.
`Clc1ccc2c(N3CCCC3)ccnc2c1` gave an Inhibition of -28.37%.
`CCCCCCC(O)(c1ccc(F)cc1)C(CN1CCOCC1)c1ccccc1.Cl` (centres undefined) gave an Inhibition of 35.55%.
Compound `COc1cc(OC)cc(N2C(=O)N(Cc3ccc(C(C)(C)C)cc3)c3ccccc3S2(=O)=O)c1` has an Inhibition of -14.44%.
For `COc1ccc(C(=O)C2CC2c2ccc(Cl)cc2)cc1` (centres undefined), the Inhibition was -36.26%.
With `CCCCCn1c(=N)n(CC(O)COc2cccc(C)c2)c2ccccc21.Cl` (centres undefined) the Inhibition was -6.708%.
`O=c1c2c([nH]c3ccccc13)CCCC2` showed an Inhibition of 14.89%.
In the case of `COc1ccccc1N1C(=N)SC(=Cc2ccc(OCc3ccccc3F)cc2)C1=O`, the Inhibition was -8.054%.
With `CCN1CCN(c2c(C(=O)c3ccccc3)cnc3cc(OC)c(OC)cc23)CC1` the Inhibition was -1.231%.
Work on `Cc1ccc(S(=O)(=O)c2c(COC(=O)c3cccc(C)c3)c(-c3ccccc3)nn2C)cc1` yielded an Inhibition of -24.68%.
`CCCCN(CCCC)S(=O)(=O)c1ccc(NC(=O)c2ccco2)cc1` was tested, and the Inhibition was -29.51%.
